Format in all cases: in vivo, mouse
A short description of data set [1]: 13C3-lactate flux tracing after tail-vein injection (LC-MS). Here is the method: It was next determined whether systemic lactate is capable of crossing the epithelial barrier into the gut lumen. […] At sacrifice, serum and plasma were immediately collected following cardiac puncture, and intestinal luminal contents were collected by removing the colon and cecum from the mice and gently sampling the inner surface of the tissue.
20% w/w ^13C3 sodium lactate (Cambridge Isotope Laboratories™) was diluted with PBS to a concentration of 400 mM in PBS. […] […] […] Whole blood was divided into two samples to obtain both serum and plasma, which was flash frozen in liquid nitrogen and stored at −80° C.
Immediately following cardiac puncture, mice were dissected to remove colon and cecum, and the contents were removed by squeezing with sterilized forceps into pre-weighed tubes. Contents were immediately flash frozen in liquid nitrogen. […]
Samples were analyzed for lactate and propionate by a Metabolomics Platform. LC-MS metabolomics were performed as previously described. 23 LC-MS traces were identified and integrated to quantify presence of ^13C0- and ^13C3-lactate isotopes.

The test system of a further data set is mice. The experiment in a line: Colorectal propionate instillation, treadmill run to exhaustion. To be noted: 200 μL 150 mM sodium propionate in PBS into the colon 30 minutes prior to exercise, n=8, P=0.03. The method, then: (§1) Treadmilling followed the same protocol as above. Mice were fasted 7 hours prior to exercise, to normalize metabolic profiles. 30 minutes prior to exercise, mice were treated with 200 μL of either PBS vehicle alone (n=8) or 150 mM sodium propionate in PBS (n=8) using a flexible gavage needle to introduce 200 μL of solution into the colon. Mice were run to exhaustion as above. This protocol was repeated for 3 consecutive days. On the first day of treatment, serum was collected 40 minutes post-exhaustion via tail-vein bleed and measured using the Ciraplex™ multiplex mouse cytokine assay (Aushon BioSystems™)

The test system of the next data set is inflammatory cytokines. As to the kind of experiment: Serum inflammatory cytokines after treadmill run, intrarectal propionate. As to conditions: serum taken 40 minutes after treadmill running, intrarectal propionate versus vehicle. The method, then:
as §1

Setting [2] is: 100 μL of 400 mM intravenously via tail vein, sacrifice 12 minutes after injection, LC-MS.

“Also recorded” adds a separate entry of the source.

`[13CH3][13CH](O)[13C](=O)[O-].[Na+]` (centres unmarked) [^13C3 sodium lactate]: in data set [1] (setting [2]), the “13C3-labelled lactate detected in tissues” value was “present in both the serum and plasma as well as in the lumen of the colons and ceca”; the “13C3-labelled propionate detected in tissues” value is on record as “No ^13C3-labelled propionate was detected in these tissues”. For the same compound, the “earliest time at which serum lactate levels returned to baseline after tail-vein injection” value in data set [1] (tail-vein injection) came to 12 min.

For the compound `CCC(=O)[O-].[Na+]` [propionate, sodium propionate], the “treadmill runtime versus pH-matched placebo vehicle” value in the data set with mice is “increased treadmill runtime; also recorded: improves maximum run time”. Also, the “serum inflammatory cytokine levels” value with inflammatory cytokines is “no significant differences in cytokine levels were found”.

Values taken from patent publication US20220054559A1, “COMPOSITIONS AND METHODS FOR ENHANCING EXERCISE ENDURANCE” (PRESIDENT AND FELLOWS OF HARVARD COLLEGE, priority 2019, published 2022).
